Test results as given in US20250034170A1, “SMALL MOLECULE MODULATORS OF GLUCOCEREBROSIDASE ACTIVITY AND USES THEREOF” (Vanqua Bio, Inc., priority 2021, published 2025).

Target: T1, GCase (Homo sapiens, UniProt P04062)
T1 construct: endogenous in cells; host or cells: HeLa cells
T1 sequence (P04062 40-536): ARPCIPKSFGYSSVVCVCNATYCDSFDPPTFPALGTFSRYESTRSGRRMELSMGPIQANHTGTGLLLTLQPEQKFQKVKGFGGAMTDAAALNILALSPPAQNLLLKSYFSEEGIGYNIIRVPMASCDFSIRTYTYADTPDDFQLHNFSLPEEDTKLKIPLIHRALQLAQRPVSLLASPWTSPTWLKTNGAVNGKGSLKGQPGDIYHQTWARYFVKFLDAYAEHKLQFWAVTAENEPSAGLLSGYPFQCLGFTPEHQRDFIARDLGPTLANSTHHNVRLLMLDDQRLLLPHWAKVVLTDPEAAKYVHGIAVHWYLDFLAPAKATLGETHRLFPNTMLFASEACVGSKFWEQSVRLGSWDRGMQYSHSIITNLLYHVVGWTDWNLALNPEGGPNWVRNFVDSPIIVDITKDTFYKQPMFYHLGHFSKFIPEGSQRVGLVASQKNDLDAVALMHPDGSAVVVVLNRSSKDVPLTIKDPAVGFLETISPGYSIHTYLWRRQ
Test: activation of GCase in a live cell PFB assay in HELA cells
Type: cell-based
Conditions: EC50 given as range classes
Protocol: Exemplary compounds were evaluated for activation of GCase in a live cell PFB assay in HELA cells (essentially as described in Ysselstein et al., “LRRK2 kinase activity regulates lysosomal glucocerebrosidase in neurons derived from Parkinson's disease patients” Nature Communications (2019) 10:5570). […] EC50 ranges: A: <10 μM; B: >10-50 μM; C: >50-100 μM; D: >100 μM.

EC50	SMILES
> 100 µM	O=C(c1ccc(Cl)cc1)N1CC2(CCN(c3cnc4cnn(CC(F)F)c4n3)C2)C1 [Cmpd 378]
10 to 50 µM	COc1ccc(C(=O)N2CC3(CCN(c4cnc5cnn(CC(F)F)c5n4)C3)C2)cc1 [Cmpd 379]
< 10 µM	COc1cccc(C(=O)N2CC3(CCN(c4cnc5cnn(CC(F)F)c5n4)C3)C2)c1 [Cmpd 380]
< 10 µM	Cc1cccc(C(=O)N2CC3(CCN(c4cnc5cnn(CC(F)F)c5n4)C3)C2)c1 [Cmpd 381]
10 to 50 µM	O=C(c1cccc(C(F)(F)F)c1)N1CC2(CCN(c3cnc4cnn(CC(F)F)c4n3)C2)C1 [Cmpd 382]
< 10 µM	O=C(c1ccccc1Cl)N1CC2(CCN(c3cnc4cnn(CC(F)F)c4n3)C2)C1 [Cmpd 383]
< 10 µM	Cc1ccccc1C(=O)N1CC2(CCN(c3cnc4cnn(CC(F)F)c4n3)C2)C1 [Cmpd 384]
10 to 50 µM	Cc1ccc(S(=O)(=O)N2CC3(CCN(c4cnc5cnn(CC(F)F)c5n4)C3)C2)cc1 [Cmpd 385]
10 to 50 µM	O=S(=O)(c1ccc(Cl)cc1)N1CC2(CCN(c3cnc4cnn(CC(F)F)c4n3)C2)C1 [Cmpd 386]
10 to 50 µM	O=C(c1ccc(OC(F)F)cc1)N1CC2(CCN(c3cnc4cnn(CC(F)F)c4n3)C2)C1 [Cmpd 387]
10 to 50 µM	O=C(c1cccc(OC(F)(F)F)c1)N1CC2(CCN(c3cnc4cnn(CC(F)F)c4n3)C2)C1 [Cmpd 388]
< 10 µM	O=C(c1ccccc1OC(F)F)N1CC2(CCN(c3cnc4cnn(CC(F)F)c4n3)C2)C1 [Cmpd 389]
< 10 µM	O=C(c1ccccc1OC(F)(F)F)N1CC2(CCN(c3cnc4cnn(CC(F)F)c4n3)C2)C1 [Cmpd 390]
< 10 µM	COc1ccccc1C(=O)N1CC2(CCN(c3cnc4cnn(CC(F)F)c4n3)C2)C1 [Cmpd 391]
< 10 µM	O=C(c1ccccc1C(F)(F)F)N1CC2(CCN(c3cnc4cnn(CC(F)F)c4n3)C2)C1 [Cmpd 392]
10 to 50 µM	O=S(=O)(c1ccccc1Cl)N1CC2(CCN(c3cnc4cnn(CC(F)F)c4n3)C2)C1 [Cmpd 393]
10 to 50 µM	Cc1ccccc1S(=O)(=O)N1CC2(CCN(c3cnc4cnn(CC(F)F)c4n3)C2)C1 [Cmpd 394]
< 10 µM	O=S(=O)(c1ccccc1F)N1CC2(CCN(c3cnc4cnn(CC(F)F)c4n3)C2)C1 [Cmpd 395]
10 to 50 µM	O=S(=O)(c1ccccc1C(F)(F)F)N1CC2(CCN(c3cnc4cnn(CC(F)F)c4n3)C2)C1 [Cmpd 396]
10 to 50 µM	O=C1CC2(CCN(c3cnc4cnn(CC(F)F)c4n3)CC2)CN1Cc1ccc(F)cn1 [Cmpd 397]
10 to 50 µM	Cc1cc(CN2CC3(CCN(c4cnc5cnn(CC(F)F)c5n4)CC3)CC2=O)no1 [Cmpd 398]
10 to 50 µM	Cc1csc(CN2CC3(CCN(c4cnc5cnn(CC(F)F)c5n4)CC3)CC2=O)n1 [Cmpd 399]
10 to 50 µM	O=C1CC2(CCN(c3cnc4cnn(CC(F)F)c4n3)CC2)CN1Cc1ccc(Cl)cn1 [Cmpd 400]
10 to 50 µM	FC(F)Cn1ncc2ncc(N3CCC4(CN(c5cncc(Cl)c5)C4)C3)nc21 [Cmpd 401]
> 100 µM	Cc1nc(N2CC3(CCN(c4cnc5cnn(CC(F)F)c5n4)C3)C2)ncc1Cl [Cmpd 402]
10 to 50 µM	FC(F)Cn1ncc2ncc(N3CCC4(CN(c5ccc(Cl)cn5)C4)C3)nc21 [Cmpd 403]
< 10 µM	Cc1cc(N2CC3(CCN(c4cnc5cnn(CC(F)F)c5n4)C3)C2)nc(C(F)(F)F)n1 [Cmpd 404]
10 to 50 µM	FC(F)Cn1ncc2ncc(N3CCC4(CN(c5cccc(OC(F)(F)F)n5)C4)C3)nc21 [Cmpd 405]

EC50	SMILES
10 to 50 µM	FC(F)Cn1ncc2ncc(N3CCC4(CN(c5cccc(OC(F)F)n5)C4)C3)nc21 [Cmpd 406]
10 to 50 µM	Fc1cc(Cl)cnc1N1CC2(CCN(c3cnc4cnn(CC(F)F)c4n3)C2)C1 [Cmpd 407]
10 to 50 µM	Cc1cc(Cl)cnc1N1CC2(CCN(c3cnc4cnn(CC(F)F)c4n3)C2)C1 [Cmpd 408]
10 to 50 µM	FC(F)Cn1ncc2ncc(N3CCC4(CN(c5cccc(OCC(F)(F)F)n5)C4)C3)nc21 [Cmpd 409]
50 to 100 µM	COc1ncc(N2CC3(CCN(c4cnc5cnn(CC(F)F)c5n4)C3)C2)cn1 [Cmpd 410]
10 to 50 µM	FC(F)Cn1ncc2ncc(N3CCC4(CN(c5ccnc(OC(F)(F)F)c5)C4)C3)nc21 [Cmpd 411]
10 to 50 µM	FC(F)Cn1ncc2ncc(N3CCC4(CN(c5ccnc(OCC(F)(F)F)c5)C4)C3)nc21 [Cmpd 412]
< 10 µM	O=S(=O)(c1cncc(C(F)(F)F)c1)N1CC2(CCN(c3cnc4cnn(CC(F)F)c4n3)C2)C1 [Cmpd 413]
10 to 50 µM	O=S(=O)(c1ccc(C(F)(F)F)nc1)N1CC2(CCN(c3cnc4cnn(CC(F)F)c4n3)C2)C1 [Cmpd 414]
10 to 50 µM	O=S(=O)(CCC(F)(F)F)N1CC2(CCN(c3cnc4cnn(CC(F)F)c4n3)C2)C1 [Cmpd 415]
10 to 50 µM	Cc1ccc(S(=O)(=O)N2CC3(CCN(c4cnc5cnn(CC(F)F)c5n4)C3)C2)cn1 [Cmpd 416]
< 10 µM	Cc1cccc(S(=O)(=O)N2CC3(CCN(c4cnc5cnn(CC(F)F)c5n4)C3)C2)c1 [Cmpd 417]
< 10 µM	O=S(=O)(c1cccc(Cl)c1)N1CC2(CCN(c3cnc4cnn(CC(F)F)c4n3)C2)C1 [Cmpd 418]
10 to 50 µM	Cc1ccc(C(=O)N2CC3(CCN(c4cnc5cnn(CC(F)F)c5n4)C3)C2)cc1 [Cmpd 419]
10 to 50 µM	O=C(c1cc(Cl)cc(Cl)n1)N1CC2(CCN(c3cnc4cnn(CC(F)F)c4n3)C2)C1 [Cmpd 420]
< 10 µM	O=C1CC2(CCN(c3cnc4cnn(CC(F)F)c4n3)CC2)CN1Cc1ccc(Cl)cc1F [Cmpd 421]
< 10 µM	Cc1nc(N2CC3(CCN(c4cnc5cnn(CC(F)F)c5n4)C3)C2)cc(C(F)(F)F)n1 [Cmpd 422]
10 to 50 µM	Cc1ncc(CN2CC3(CCN(c4cnc5cnn(CC(F)F)c5n4)CC3)CC2=O)s1 [Cmpd 423]
< 10 µM	FC(F)(F)Cn1ncc2cnc(N3CCC4(CN(c5ccnc(C(F)(F)F)c5)C4)C3)nc21 [Cmpd 424]
50 to 100 µM	FC(F)(F)c1cc(N2CC3(CCN(c4cncc(-c5nncs5)n4)C3)C2)ccn1 [Cmpd 425]
10 to 50 µM	FC(F)(F)Cn1ncc2ncc(N3CCC4(CN(c5cnc(C(F)(F)F)nc5)C4)C3)nc21 [Cmpd 426]
10 to 50 µM	FC(F)(F)c1ncc(N2CC3(CCN(c4cnc5cnn(C6COC6)c5n4)C3)C2)cn1 [Cmpd 427]
< 10 µM	Cc1nn(C2COC2)c2nc(N3CCC4(CN(c5cnc(C(F)(F)F)nc5)C4)C3)cnc12 [Cmpd 428]
> 100 µM	Cc1nn(CC(F)F)c2nc(N3CCC4(CN(c5cnc(C(F)(F)F)nc5)C4)C3)cnc12 [Cmpd 429]
< 10 µM	FC(F)(F)c1ncc(N2CC3(CCN(c4cncc(-c5nncs5)n4)C3)C2)cn1 [Cmpd 430]
< 10 µM	FC(F)(F)Cn1ncc2cnc(N3CCC4(CN(c5cnc(C(F)(F)F)nc5)C4)C3)nc21 [Cmpd 432]
10 to 50 µM	Cc1nn(CC(F)F)c2nc(N3CCC4(CN(c5cnc(C(F)(F)F)nc5)C4)C3)ncc12 [Cmpd 433]

Same assay, conditions: activation of GCase, EC50 ranges

EC50	SMILES
< 10 µM	CCc1csc(CN2CCC3(CCN(c4cnc5cnn(CC(F)F)c5n4)CC3)C2=O)n1 [Cmpd 364]
10 to 50 µM	O=C1N(Cc2nc(C(F)(F)F)cs2)CCC12CCN(c1cnc3cnn(CC(F)F)c3n1)CC2 [Cmpd 365]
< 10 µM	O=C1N(Cc2cnc(C(F)(F)F)s2)CCC12CCN(c1cnc3cnn(CC(F)F)c3n1)CC2 [Cmpd 366]
10 to 50 µM	CCc1csc(CN2CC3(CCN(c4cnc5cnn(CC(F)F)c5n4)CC3)CC2=O)n1 [Cmpd 367]
< 10 µM	O=C1CC2(CCN(c3cnc4cnn(CC(F)F)c4n3)CC2)CN1Cc1nc(C(F)(F)F)cs1 [Cmpd 368]
10 to 50 µM	O=C1CC2(CCN(c3cnc4cnn(CC(F)F)c4n3)CC2)CN1Cc1cnc(C(F)(F)F)s1 [Cmpd 369]
10 to 50 µM	O=C(c1ccc(OC(F)(F)F)cc1)N1CC2(CCN(c3cnc4cnn(CC(F)F)c4n3)C2)C1 [Cmpd 370]
< 10 µM	O=C(c1cccc(Cl)c1)N1CC2(CCN(c3cnc4cnn(CC(F)F)c4n3)C2)C1 [Cmpd 371]
10 to 50 µM	O=S(=O)(c1ccc(C(F)(F)F)cc1)N1CC2(CCN(c3cnc4cnn(CC(F)F)c4n3)C2)C1 [Cmpd 372]
10 to 50 µM	O=S(=O)(c1ccc(F)cc1)N1CC2(CCN(c3cnc4cnn(CC(F)F)c4n3)C2)C1 [Cmpd 373]
10 to 50 µM	O=S(=O)(c1cccc(C(F)(F)F)c1)N1CC2(CCN(c3cnc4cnn(CC(F)F)c4n3)C2)C1 [Cmpd 374]
< 10 µM	O=S(=O)(c1cccc(F)c1)N1CC2(CCN(c3cnc4cnn(CC(F)F)c4n3)C2)C1 [Cmpd 375]
10 to 50 µM	FC(F)(F)c1cc(N2CCC3(C2)CN(c2ncc4cnn(C5COC5)c4n2)C3)ccn1 [Cmpd 376]
> 100 µM	O=C(c1ccc(C(F)(F)F)cc1)N1CC2(CCN(c3cnc4cnn(CC(F)F)c4n3)C2)C1 [Cmpd 377]
10 to 50 µM	FC(F)(F)c1ncc(N2CC3(CCN(c4ncc5cnn(C6COC6)c5n4)C3)C2)cn1 [Cmpd 434]
< 10 µM	O=C(c1cccc(OC(F)F)c1)N1CC2(CCN(c3cnc4cnn(CC(F)F)c4n3)C2)C1 [Cmpd 435]
10 to 50 µM	FC(F)Cn1ncc2ncc(N3CCC4(CN(c5ccc(OCC(F)(F)F)nc5)C4)C3)nc21 [Cmpd 436]
50 to 100 µM	Cc1cc(C(F)(F)F)cnc1N1CC2(CCN(c3cnc4cnn(CC(F)F)c4n3)C2)C1 [Cmpd 437]
